From US10676485B2, “Macrocyclic MCL-1 inhibitors and methods of use” (AbbVie Inc., priority 2017, dated 2020)
Like-named read-outs stand apart in the source and are kept apart here.

Tests used:
[1] = tested on: NCI-H929 human multiple myeloma tumor cell line; experiment: NCI-H929 cell viability assay (CellTiter-Glo); assay type: cell-based; conditions: NCI-H929, read-out: H929 Viability IC50 (μM), 10% FBS, 24 hours of compound treatment
GST-MCL-1 = GST-MCL-1 (Homo sapiens (Human), UniProt Q07820); experiment: TR-FRET MCL-1 binding assay (competition with probe F-Bak)
Description: For the assay, an acoustic dispenser was used to prepare dilution series from 10 mM test compounds in 100% DMSO and directly transfer 160 nL into low volume 384-well assay plates. 8 μL of a protein/probe/antibody mix was then added to each well resulting in final concentrations listed below: Test compound: 11 three-fold dilutions beginning at 25 μM
The samples were then mixed on a shaker for 1 minute and incubated for an additional 2 hours at room temperature. For each assay plate, a probe/antibody and protein/antibody/probe mixture were included as a negative and a positive control, respectively. Fluorescence was measured on the Envision (Perkin Elmer) using a 340/35 nm excitation filter and 520/525 (F-Bak) and 495/510 nm (Tb-labeled anti-his antibody) emission filters. […] The TR-FRET assay can be performed in the presence of varying concentrations of human serum (HS) or fetal bovine serum (FBS). Compounds were tested both without HS and in the presence of 10% HS.

[2] = tested on: AMO-1 human multiple myeloma tumor cell line; experiment: AMO-1 cell viability assay (CellTiter-Glo); assay type: cell-based; conditions: AMO1, read-out: AMO-1 Viability IC50 (μM), 10% FBS, 24 hours of compound treatment
[3] = read-out: MCL-1 Binding Ki (nM, 10% HS), in the presence of 10% HS
[4] = without HS, read-out: MCL-1 Binding Ki

Sequence of GST-MCL-1 (Q07820 whole entry): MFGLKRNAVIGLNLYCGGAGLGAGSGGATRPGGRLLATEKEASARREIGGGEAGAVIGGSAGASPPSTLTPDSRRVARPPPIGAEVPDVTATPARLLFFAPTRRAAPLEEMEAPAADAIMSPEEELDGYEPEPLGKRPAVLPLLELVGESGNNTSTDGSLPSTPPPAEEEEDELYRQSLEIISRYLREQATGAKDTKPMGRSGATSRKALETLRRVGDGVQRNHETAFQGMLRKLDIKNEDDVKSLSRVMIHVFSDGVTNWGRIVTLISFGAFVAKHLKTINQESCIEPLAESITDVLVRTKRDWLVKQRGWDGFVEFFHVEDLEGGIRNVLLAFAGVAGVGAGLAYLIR

SMILES: Cc1c(Cl)c2c(Cl)c(C)c1-c1c(C3=CCCC3)sc3ncnc(c13)O[C@@H](C(=O)O)Cc1cc(ccc1OCc1ccnc([C@H]3CC[C@](F)(COC[C@@H]4COCCO4)CC3)n1)OC[C@@H](CN1CCN(C)CC1)O2 [Example 33, (7R,16R)-19,23-dichloro-1-(cyclopent-1-en-1-yl)-10-({2-[(1R,4s)-4-({[(2S)-1,4-dioxan-2-yl]methoxy}methyl)-4-fluorocyclohexyl]pyrimidin-4-yl}methoxy)-20,22-dimethyl-16-[(4-methylpiperazin-1-yl)methyl]-7,8,15,16-tetrahydro-18,21-etheno-13,9-(metheno)-6,14,17-trioxa-2-thia-3,5-diazacyclononadeca[1,2,3-cd]indene-7-carboxylic acid]
- IC50 [1]: 0.000586 µM
- Ki (GST-MCL-1; [3]): 0.3 nM
- Ki (GST-MCL-1; [4]): 0.023 nM
- IC50 [2]: 0.222 nM

SMILES: Cc1c(Cl)c2c(Cl)c(C)c1-c1c(-c3ccc(F)cc3)sc3ncnc(c13)O[C@@H](C(=O)O)Cc1cc(ccc1OCc1nccc(-c3ccc(OC[C@H]4COCCO4)cc3)n1)OC[C@@H](CN1CCN(C)CC1)O2 [Example 23, (7R,16R)-19,23-dichloro-10-{[4-(4-{[(2R)-1,4-dioxan-2-yl]methoxy}phenyl)pyrimidin-2-yl]methoxy}-1-(4-fluorophenyl)-20,22-dimethyl-16-[(4-methylpiperazin-1-yl)methyl]-7,8,15,16-tetrahydro-18,21-etheno-13,9-(metheno)-6,14,17-trioxa-2-thia-3,5-diazacyclononadeca[1,2,3-cd]indene-7-carboxylic acid]
- IC50 [1]: 0.00849 µM
- Ki (GST-MCL-1; [3]): 41 nM
- Ki (GST-MCL-1; [4]): 4.98 nM
- IC50 [2]: 3.15 nM

SMILES: Cc1c(Cl)c2c(Cl)c(C)c1-c1c(-c3ccc(F)cc3)sc3ncnc(c13)O[C@@H](C(=O)O)Cc1cc(ccc1OCc1ccnc([C@H]3CC[C@](F)(COC[C@@H]4COCCO4)CC3)n1)OC[C@@H](CN1CCN(C)CC1)O2 [Example 28, (7R,16R)-19,23-dichloro-10-({2-[(1R,4s)-4-({[(2S)-1,4-dioxan-2-yl]methoxy}methyl)-4-fluorocyclohexyl]pyrimidin-4-yl}methoxy)-1-(4-fluorophenyl)-20,22-dimethyl-16-[(4-methylpiperazin-1-yl)methyl]-7,8,15,16-tetrahydro-18,21-etheno-13,9-(metheno)-6,14,17-trioxa-2-thia-3,5-diazacyclononadeca[1,2,3-cd]indene-7-carboxylic acid]
- IC50 [1]: 0.000337 µM
- Ki (GST-MCL-1; [3]): 0.18 nM
- Ki (GST-MCL-1; [4]): 0.017 nM
- IC50 [2]: 0.211 nM

SMILES: Cc1c(Cl)c2c(Cl)c(C)c1-c1c(-c3ccc(F)cc3)sc3ncnc(c13)O[C@@H](C(=O)O)Cc1cc(ccc1OCc1ccnc(C3=CC[C@@](F)(COC[C@@H]4COCCO4)CC3)n1)OC[C@@H](CN1CCN(C)CC1)O2 [Example 42, (7R,16R)-19,23-dichloro-10-({2-[(4R)-4-({[(2S)-1,4-dioxan-2-yl]methoxy}methyl)-4-fluorocyclohex-1-en-1-yl]pyrimidin-4-yl}methoxy)-1-(4-fluorophenyl)-20,22-dimethyl-16-[(4-methylpiperazin-1-yl)methyl]-7,8,15,16-tetrahydro-18,21-etheno-13,9-(metheno)-6,14,17-trioxa-2-thia-3,5-diazacyclononadeca[1,2,3-cd]indene-7-carboxylic acid]
- IC50 [1]: 0.000356 µM
- Ki (GST-MCL-1; [3]): 0.24 nM
- Ki (GST-MCL-1; [4]): 0.018 nM
- IC50 [2]: 0.404 nM

SMILES: COc1ccccc1-c1nccc(COc2ccc3cc2C[C@H](C(=O)O)Oc2ncnc4sc(C[C@H]5COCCO5)c(c24)-c2c(C)c(Cl)c(c(Cl)c2C)O[C@H](CN2CCN(C)CC2)CO3)n1 [Example 19, (7R,16R)-19,23-dichloro-1-{[(2S)-1,4-dioxan-2-yl]methyl}-10-{[2-(2-methoxyphenyl)pyrimidin-4-yl]methoxy}-20,22-dimethyl-16-[(4-methylpiperazin-1-yl)methyl]-7,8,15,16-tetrahydro-18,21-etheno-13,9-(metheno)-6,14,17-trioxa-2-thia-3,5-diazacyclononadeca[1,2,3-cd]indene-7-carboxylic acid]
- IC50 [1]: 0.0152 µM
- Ki (GST-MCL-1; [3]): 0.64 nM
- Ki (GST-MCL-1; [4]): 0.156 nM
- IC50 [2]: 9.74 nM

SMILES: Cc1c(Cl)c2c(Cl)c(C)c1-c1c(-c3ccc(F)cc3)sc3ncnc(c13)O[C@@H](C(=O)O)Cc1cc(ccc1OCc1ccnc(N3CC(COC[C@@H]4COCCO4)C3)n1)OC[C@@H](CN1CCN(C)CC1)O2 [Example 13, (7R,16R)-19,23-dichloro-10-({2-[3-({[(2R)-1,4-dioxan-2-yl]methoxy}methyl)azetidin-1-yl]pyrimidin-4-yl}methoxy)-1-(4-fluorophenyl)-20,22-dimethyl-16-[(4-methylpiperazin-1-yl)methyl]-7,8,15,16-tetrahydro-18,21-etheno-9,13-(metheno)-6,14,17-trioxa-2-thia-3,5-diazacyclononadeca[1,2,3-cd]indene-7-carboxylic acid]
- IC50 [1]: 0.00311 µM
- Ki (GST-MCL-1; [3]): 1.07 nM
- Ki (GST-MCL-1; [4]): 0.079 nM
- IC50 [2]: 1.26 nM

SMILES: Cc1c(Cl)c2c(Cl)c(C)c1-c1c(C3CCC3)sc3ncnc(c13)O[C@@H](C(=O)O)Cc1cc(ccc1OCc1ccnc([C@H]3CC[C@H](OCC4COCCO4)CC3)n1)OC[C@@H](CN1CCN(C)CC1)O2 (stereo partly drawn) [Example 29, (7R,16R)-19,23-dichloro-1-cyclobutyl-10-[(2-{(1r,4r)-4-[(1,4-dioxan-2-yl)methoxy]cyclohexyl}pyrimidin-4-yl)methoxy]-20,22-dimethyl-16-[(4-methylpiperazin-1-yl)methyl]-7,8,15,16-tetrahydro-18,21-etheno-13,9-(metheno)-6,14,17-trioxa-2-thia-3,5-diazacyclononadeca[1,2,3-cd]indene-7-carboxylic acid]
- IC50 [1]: 0.000346 µM
- Ki (GST-MCL-1; [3]): 0.55 nM
- Ki (GST-MCL-1; [4]): 0.011 nM
- IC50 [2]: 0.0812 nM

SMILES: Cc1c(Cl)c2c(Cl)c(C)c1-c1c(-c3ccc(F)cc3)sc3ncnc(c13)O[C@@H](C(=O)O)Cc1cc(ccc1OCc1ccnc(-c3ccc(NC[C@H]4COCCO4)nc3)n1)OC[C@@H](CN1CCN(C)CC1)O2 [Example 36, (7R,16R)-19,23-dichloro-10-({2-[6-({[(2S)-1,4-dioxan-2-yl]methyl}amino)pyridin-3-yl]pyrimidin-4-yl}methoxy)-1-(4-fluorophenyl)-20,22-dimethyl-16-[(4-methylpiperazin-1-yl)methyl]-7,8,15,16-tetrahydro-18,21-etheno-13,9-(metheno)-6,14,17-trioxa-2-thia-3,5-diazacyclononadeca[1,2,3-cd]indene-7-carboxylic acid]
- IC50 [1]: 0.000183 µM
- Ki (GST-MCL-1; [3]): 0.05 nM
- Ki (GST-MCL-1; [4]): 0.001 nM
- IC50 [2]: 0.0488 nM

SMILES: Cc1c(Cl)c2c(Cl)c(C)c1-c1c(-c3ccc(F)cc3)sc3ncnc(c13)O[C@@H](C(=O)O)Cc1cc(ccc1OCc1cncc(-c3ccc(OC[C@H]4COCCO4)cc3)n1)OC[C@@H](CN1CCN(C)CC1)O2 [Example 16, (7R,16R)-19,23-dichloro-10-{[6-(4-{[(2R)-1,4-dioxan-2-yl]methoxy}phenyl)pyrazin-2-yl]methoxy}-1-(4-fluorophenyl)-20,22-dimethyl-16-[(4-methylpiperazin-1-yl)methyl]-7,8,15,16-tetrahydro-18,21-etheno-13,9-(metheno)-6,14,17-trioxa-2-thia-3,5-diazacyclononadeca[1,2,3-cd]indene-7-carboxylic acid]
- IC50 [1]: 0.000592 µM
- Ki (GST-MCL-1; [3]): 0.83 nM
- Ki (GST-MCL-1; [4]): 0.048 nM
- IC50 [2]: 0.245 nM

SMILES: Cc1c(Cl)c2c(Cl)c(C)c1-c1c(-c3ccc(F)cc3)sc3ncnc(c13)O[C@@H](C(=O)O)Cc1cc(ccc1OCc1ccnc(N3CCC(OC[C@H]4COCCO4)CC3)n1)OC[C@@H](CN1CCN(C)CC1)O2 [Example 10, (7R,16R)-19,23-dichloro-10-{[2-(4-{[(2R)-1,4-dioxan-2-yl]methoxy}piperidin-1-yl)pyrimidin-4-yl]methoxy}-1-(4-fluorophenyl)-20,22-dimethyl-16-[(4-methylpiperazin-1-yl)methyl]-7,8,15,16-tetrahydro-18,21-etheno-13,9-(metheno)-6,14,17-trioxa-2-thia-3,5-diazacyclononadeca[1,2,3-cd]indene-7-carboxylic acid]
- IC50 [1]: 0.00217 µM
- Ki (GST-MCL-1; [3]): 3.07 nM
- Ki (GST-MCL-1; [4]): 0.346 nM
- IC50 [2]: 0.502 nM

SMILES: COc1ccccc1-c1ccc(OC[C@@H]2COCCO2)c(COc2ccc3cc2C[C@H](C(=O)O)Oc2ncnc4sc(-c5ccc(F)cc5)c(c24)-c2c(C)c(Cl)c(c(Cl)c2C)O[C@H](CN2CCN(C)CC2)CO3)n1 [Example 53, (7R,16R)-19,23-dichloro-10-{[3-{[(2S)-1,4-dioxan-2-yl]methoxy}-6-(2-methoxyphenyl)pyridin-2-yl]methoxy}-1-(4-fluorophenyl)-20,22-dimethyl-16-[(4-methylpiperazin-1-yl)methyl]-7,8,15,16-tetrahydro-18,21-etheno-9,13-(metheno)-6,14,17-trioxa-2-thia-3,5-diazacyclononadeca[1,2,3-cd]indene-7-carboxylic acid]
- IC50 [1]: > 1 µM
- Ki (GST-MCL-1; [3]): 114 nM
- Ki (GST-MCL-1; [4]): 13.7 nM
- IC50 [2]: 311 nM
